According to patent US12692253B2, “Antimicrobial compounds and methods” (Curza Global, LLC, priority 2019, dated 2026):

Assays:
[1] = test system: E. coli S30 extract (bacterial protein synthesis); test: E. coli S30 extract coupled transcription-translation luciferase assay (inhibition of bacterial protein synthesis); assay type: biochemical; settings: class by IC50 or % inhibition @ 1 μM, read-out: S30 IC50 (μM/% inhib.)
Method in brief: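 Luciferase luminescence quantified inhibition of protein synthesis relative to water controls, with no-DNA reactions giving background. Compounds in 2-fold serial dilution (8 levels) were incubated 1 hour at 37 °C with E. coli S30 extract, amino acids and pBESTluc plasmid, then chilled to stop.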

[2] = biological target: Rabbit Reticulocyte Lysate (eukaryotic protein synthesis); test: Rabbit reticulocyte lysate luciferase assay (inhibition of eukaryotic protein synthesis); assay type: biochemical; settings: class by IC50 or % inhibition @ 1 μM, read-out: Rabbit reticulocyte IC50 (μM/% inhib.)
Method in brief: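 Percent inhibition calculated against water-only controls from luminescence; background set by lysate lacking RNA. Compounds, 8-point 2-fold titration, incubated 90 minutes at 30° C with nuclease-treated rabbit reticulocyte lysate programmed with luciferase control RNA plus complete amino acids.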

A. baumannn (Ab) = test: Broth microdilution minimum inhibitory concentration (MIC), CLSI; assay type: cell-based; settings: Acinetobacter baumannii, read-out: Ab + bicarb MIC
Method in brief: (§1)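 Modified CLSI method: CAMHB (± bicarbonate 6.25/25 mM or 0-50% human serum), 8-point two-fold series, triplicates, 5×10^4 CFU/well.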

E. coli (Ec) = test: as above; assay type: cell-based; settings: Escherichia coli, growth medium supplemented with sodium bicarbonate, read-out: E. coli + bicarb MIC
Method in brief: as §1

E. faecalis (Ef) = test: as above; assay type: cell-based; settings: Enterococcus faecalis, growth medium supplemented with sodium bicarbonate, read-out: Ef + bicarb MIC
Method in brief: as §1

P. aeruginosa (Pa) = test: as above; assay type: cell-based; settings: Pseudomonas aeruginosa, growth medium supplemented with sodium bicarbonate, read-out: Pa MIC + bicarb
Method in brief: as §1

S. aureus (Sa) = test: as above; assay type: cell-based; settings: Staphylococcus aureus, growth medium supplemented with sodium bicarbonate, read-out: Sa + bicarb MIC
Method in brief: as §1

Compound: C[C@H](Cc1ccc(-n2ccc(NC(=O)N3CCN(C(=O)C(C)(C)N)CC3)nc2=O)cc1)N1C[C@@H]2[C@@H](CN)[C@@H]2C1 [Compound 140]
- IC50 [1]: < 0.5 µM
- IC50 [2]: ≥ 1 µM
- MIC (A. baumannn (Ab)): 8 to 32 µg/mL
- MIC (E. coli (Ec)): < 8 µg/mL
- MIC (E. faecalis (Ef)): < 8 µg/mL
- MIC (P. aeruginosa (Pa)): 8 to 32 µg/mL
- MIC (S. aureus (Sa)): < 8 µg/mL

Compound: C[C@@H](Cc1ccc(-n2ccc(NC(=O)N3CCN(C(=O)C(C)(C)N)CC3)nc2=O)cc1)N1C[C@@H]2[C@@H](CN)[C@@H]2C1 [Compound 141]
- IC50 [1]: < 0.5 µM
- IC50 [2]: ≥ 1 µM
- MIC (A. baumannn (Ab)): 8 to 32 µg/mL
- MIC (E. coli (Ec)): < 8 µg/mL
- MIC (E. faecalis (Ef)): < 8 µg/mL
- MIC (P. aeruginosa (Pa)): < 8 µg/mL
- MIC (S. aureus (Sa)): < 8 µg/mL

Compound: CC(C)(N)C(=O)N1CCN(C(=O)Nc2ccn(-c3cccc(CCN4CC5CC5(CN)C4)c3)c(=O)n2)CC1 (stereo not drawn) [Compound 142]
- IC50 [1]: 0.5 to 1 µM
- IC50 [2]: ≥ 1 µM
- MIC (A. baumannn (Ab)): > 32 µg/mL
- MIC (E. coli (Ec)): < 8 µg/mL
- MIC (E. faecalis (Ef)): 8 to 32 µg/mL
- MIC (P. aeruginosa (Pa)): > 32 µg/mL
- MIC (S. aureus (Sa)): 8 to 32 µg/mL

Compound: CC(C)(N)C(=O)N1CCN(C(=O)Nc2ccn(-c3cccc(CCN4C[C@@H]5[C@@H](CN)[C@@H]5C4)c3)c(=O)n2)CC1 [Compound 143]
- IC50 [1]: 0.5 to 1 µM
- IC50 [2]: ≥ 1 µM
- MIC (A. baumannn (Ab)): > 32 µg/mL
- MIC (E. coli (Ec)): < 8 µg/mL
- MIC (E. faecalis (Ef)): 8 to 32 µg/mL
- MIC (P. aeruginosa (Pa)): > 32 µg/mL
- MIC (S. aureus (Sa)): 8 to 32 µg/mL

Compound: CC(C)(N)C(=O)N1CCN(C(=O)Nc2ccn(-c3cccc(CCN4C[C@H]5C[C@@]5(N)C4)c3)c(=O)n2)CC1 [Compound 144]
- IC50 [1]: ≥ 1 µM
- IC50 [2]: ≥ 1 µM
- MIC (A. baumannn (Ab)): > 32 µg/mL
- MIC (E. coli (Ec)): 8 to 32 µg/mL
- MIC (E. faecalis (Ef)): > 32 µg/mL
- MIC (P. aeruginosa (Pa)): > 32 µg/mL
- MIC (S. aureus (Sa)): > 32 µg/mL

Compound: NC[C@@H]1[C@H]2CN(CCc3ccc(-n4ccc(NC(=O)N5CCC6(CCNC6)C5)nc4=O)cc3)C[C@@H]12 (stereo partly drawn) [Compound 145]
- IC50 [1]: ≥ 1 µM
- IC50 [2]: ≥ 1 µM
- MIC (A. baumannn (Ab)): > 32 µg/mL
- MIC (E. coli (Ec)): < 8 µg/mL
- MIC (E. faecalis (Ef)): > 32 µg/mL
- MIC (P. aeruginosa (Pa)): > 32 µg/mL
- MIC (S. aureus (Sa)): 8 to 32 µg/mL

Compound: NC[C@@H]1[C@H]2CN(CCc3ccc(-n4ccc(NC(=O)N5CCC6(CC5)CC(N)C6)nc4=O)cc3)C[C@@H]12 [Compound 146]
- IC50 [1]: ≥ 1 µM
- IC50 [2]: ≥ 1 µM
- MIC (A. baumannn (Ab)): 8 to 32 µg/mL
- MIC (E. coli (Ec)): < 8 µg/mL
- MIC (E. faecalis (Ef)): < 8 µg/mL
- MIC (P. aeruginosa (Pa)): 8 to 32 µg/mL
- MIC (S. aureus (Sa)): < 8 µg/mL

Compound: NC[C@@H]1[C@H]2CN(CCc3ccc(-n4ccc(NC(=O)N5CCC6(CC5)CNC6)nc4=O)cc3)C[C@@H]12 [Compound 147]
- IC50 [1]: ≥ 1 µM
- IC50 [2]: ≥ 1 µM
- MIC (A. baumannn (Ab)): > 32 µg/mL
- MIC (E. coli (Ec)): < 8 µg/mL
- MIC (E. faecalis (Ef)): > 32 µg/mL
- MIC (P. aeruginosa (Pa)): > 32 µg/mL
- MIC (S. aureus (Sa)): < 8 µg/mL

Compound: NC[C@@H]1[C@H]2CN(CCc3ccc(-n4ccc(NC(=O)N5CC6(CCC6N)C5)nc4=O)cc3)C[C@@H]12 (stereo partly drawn) [Compound 148]
- IC50 [1]: ≥ 1 µM
- IC50 [2]: ≥ 1 µM
- MIC (A. baumannn (Ab)): > 32 µg/mL
- MIC (E. coli (Ec)): > 32 µg/mL
- MIC (E. faecalis (Ef)): > 32 µg/mL
- MIC (P. aeruginosa (Pa)): > 32 µg/mL
- MIC (S. aureus (Sa)): > 32 µg/mL

Compound: NC[C@@H]1[C@H]2CN(CCc3ccc(-n4ccc(NC(=O)N5CC6(CC(N)C6)C5)nc4=O)cc3)C[C@@H]12 [Compound 149]
- IC50 [1]: ≥ 1 µM
- IC50 [2]: ≥ 1 µM
- MIC (A. baumannn (Ab)): > 32 µg/mL
- MIC (E. coli (Ec)): 8 to 32 µg/mL
- MIC (E. faecalis (Ef)): > 32 µg/mL
- MIC (P. aeruginosa (Pa)): > 32 µg/mL
- MIC (S. aureus (Sa)): 8 to 32 µg/mL

Compound: CCCC(Cc1ccc(-n2ccc(NC(=O)N3CCN(C(=O)C(C)(C)N)CC3)nc2=O)cc1)N1C[C@@H]2[C@@H](CN)[C@@H]2C1 (stereo partly drawn) [Compound 150]
- IC50 [1]: < 0.5 µM
- IC50 [2]: ≥ 1 µM
- MIC (A. baumannn (Ab)): < 8 µg/mL
- MIC (E. coli (Ec)): < 8 µg/mL
- MIC (E. faecalis (Ef)): < 8 µg/mL
- MIC (P. aeruginosa (Pa)): < 8 µg/mL
- MIC (S. aureus (Sa)): < 8 µg/mL

Compound: CCC(Cc1ccc(-n2ccc(NC(=O)N3CCN(C(=O)[C@@](C)(N)CO)CC3)nc2=O)cc1)N1C[C@@H]2[C@@H](CN)[C@@H]2C1 (stereo partly drawn) [Compound 151]
- IC50 [1]: < 0.5 µM
- IC50 [2]: ≥ 1 µM
- MIC (A. baumannn (Ab)): 8 to 32 µg/mL
- MIC (E. coli (Ec)): < 8 µg/mL
- MIC (E. faecalis (Ef)): < 8 µg/mL
- MIC (P. aeruginosa (Pa)): 8 to 32 µg/mL
- MIC (S. aureus (Sa)): < 8 µg/mL
